The source of these data is PMC5333395, “Assessing histone demethylase inhibitors in cells: lessons learned” (Epigenetics & Chromatin, 2017).

Series [1] has as its system Caco-2 human colon carcinoma cell line. Put plainly: Caco-2 permeability. It is filed as in vitro ADME. Particulars: P app. Here is the method: P app (apparent permeability) was determined in the Caco-2 human colon carcinoma cell line essentially as described in [11].
In general terms: Caco-2 cells form a polarised layer with tight junctions and transporters.

In another series the target is KDM5A (Homo sapiens, UniProt P29375). Put plainly: AlphaScreen in vitro demethylase assay. It is filed as biochemical. Particulars: IC50 ± SD (number of replicates). Here is the method: IC50 values were determined as previously described. The following amendments were made to the protocol for carrying out 2-OG competition assays.
The target of another series is T1, KDM4B (Homo sapiens, UniProt O94953).
T1 sequence (O94953 1-1096): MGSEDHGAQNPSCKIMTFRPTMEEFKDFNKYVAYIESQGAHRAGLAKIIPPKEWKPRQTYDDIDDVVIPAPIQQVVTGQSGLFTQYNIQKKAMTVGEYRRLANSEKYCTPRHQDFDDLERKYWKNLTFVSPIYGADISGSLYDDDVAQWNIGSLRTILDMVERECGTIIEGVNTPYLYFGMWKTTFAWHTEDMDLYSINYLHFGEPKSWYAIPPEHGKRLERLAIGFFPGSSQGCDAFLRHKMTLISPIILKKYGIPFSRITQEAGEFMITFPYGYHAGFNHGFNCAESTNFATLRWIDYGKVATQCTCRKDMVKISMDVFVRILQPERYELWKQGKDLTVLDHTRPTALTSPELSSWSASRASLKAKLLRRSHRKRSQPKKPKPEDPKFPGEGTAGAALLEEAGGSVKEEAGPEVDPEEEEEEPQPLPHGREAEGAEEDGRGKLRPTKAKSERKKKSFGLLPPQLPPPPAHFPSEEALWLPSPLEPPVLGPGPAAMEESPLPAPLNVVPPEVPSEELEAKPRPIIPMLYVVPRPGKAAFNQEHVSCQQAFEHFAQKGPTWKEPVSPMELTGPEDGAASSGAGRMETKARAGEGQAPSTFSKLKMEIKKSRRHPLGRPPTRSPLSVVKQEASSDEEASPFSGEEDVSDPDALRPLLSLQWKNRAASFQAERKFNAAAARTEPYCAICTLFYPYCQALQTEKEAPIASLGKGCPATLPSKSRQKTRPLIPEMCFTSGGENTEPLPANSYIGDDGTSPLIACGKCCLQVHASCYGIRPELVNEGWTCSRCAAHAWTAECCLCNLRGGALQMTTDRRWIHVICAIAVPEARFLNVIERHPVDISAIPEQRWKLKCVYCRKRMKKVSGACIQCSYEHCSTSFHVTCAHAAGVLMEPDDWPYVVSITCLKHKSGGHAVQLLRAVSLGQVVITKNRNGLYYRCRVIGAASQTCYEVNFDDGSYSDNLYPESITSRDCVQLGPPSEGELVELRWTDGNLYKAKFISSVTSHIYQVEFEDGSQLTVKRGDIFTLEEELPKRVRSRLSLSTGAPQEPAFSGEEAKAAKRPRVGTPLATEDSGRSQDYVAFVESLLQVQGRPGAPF
As to the kind of experiment: High-content immunofluorescence (IF) assay, overexpressed full-length FLAG-tagged KDM in HeLa cells. It counts as cell-based. The settings on record: HeLa cells overexpressing WT KDM4B, H3K9me3 mark, 24 h; read-out: KDM4B, in cells, EC50 by IF assay (head: IC50). Here is the method: (§1) HeLa cells (ATCC) were cultured at 37 °C and 5% CO2 in Minimal Essential Media—Eagle (Sigma-Aldrich, UK) supplemented with 10% heat-inactivated foetal calf serum (FCS) (Gibco, UK), and 1% L-glutaMAX (Gibco, UK) in T75 flasks (Sarstedt, UK) and passaged regularly with TrypLE (Life Technologies, UK) before cells reached confluence. On day 0, 7000 cells per well were plated on a 96-well clear bottom CellCarrier plate (PerkinElmer, UK). The next day the cells were transfected with Lipofectamine 3000 (ThermoFisher Scientific, UK) following the manufacturer’s instructions. Briefly, 0.1 µg of plasmid DNA (encoding for the respective demethylase) and 0.15 µL of Lipofectamine 3000 were diluted in separate tubes containing 5 µL OptiMEM. 0.15 µL of P3000 was added to the tube with the DNA. The two solutions were then mixed gently and allowed to incubate for 5 min at room temperature. Next, the DNA-lipid complex was added to the cells for 4 h at 37 °C and 5% CO2.
(§2) Compound dilutions were made in a 96-well PCR plate (Starlab, UK). The culture medium was supplemented with 0.4% DMSO so that the solvent concentration was maintained throughout. Compounds were serially diluted at a 1:2 or 1:3 dilution ratio. Next, the cell culture plate was removed from the incubator and the medium was gently aspirated and replaced with the fresh medium containing diluted compounds.
(§3) Then cells were rinsed once with PBS and blocked for 30 min at room temperature using 3% v/v foetal calf serum diluted in PBS.

The target of another series is T2, KDM4C (Homo sapiens, UniProt Q9H3R0).
T2 sequence (Q9H3R0 1-1056): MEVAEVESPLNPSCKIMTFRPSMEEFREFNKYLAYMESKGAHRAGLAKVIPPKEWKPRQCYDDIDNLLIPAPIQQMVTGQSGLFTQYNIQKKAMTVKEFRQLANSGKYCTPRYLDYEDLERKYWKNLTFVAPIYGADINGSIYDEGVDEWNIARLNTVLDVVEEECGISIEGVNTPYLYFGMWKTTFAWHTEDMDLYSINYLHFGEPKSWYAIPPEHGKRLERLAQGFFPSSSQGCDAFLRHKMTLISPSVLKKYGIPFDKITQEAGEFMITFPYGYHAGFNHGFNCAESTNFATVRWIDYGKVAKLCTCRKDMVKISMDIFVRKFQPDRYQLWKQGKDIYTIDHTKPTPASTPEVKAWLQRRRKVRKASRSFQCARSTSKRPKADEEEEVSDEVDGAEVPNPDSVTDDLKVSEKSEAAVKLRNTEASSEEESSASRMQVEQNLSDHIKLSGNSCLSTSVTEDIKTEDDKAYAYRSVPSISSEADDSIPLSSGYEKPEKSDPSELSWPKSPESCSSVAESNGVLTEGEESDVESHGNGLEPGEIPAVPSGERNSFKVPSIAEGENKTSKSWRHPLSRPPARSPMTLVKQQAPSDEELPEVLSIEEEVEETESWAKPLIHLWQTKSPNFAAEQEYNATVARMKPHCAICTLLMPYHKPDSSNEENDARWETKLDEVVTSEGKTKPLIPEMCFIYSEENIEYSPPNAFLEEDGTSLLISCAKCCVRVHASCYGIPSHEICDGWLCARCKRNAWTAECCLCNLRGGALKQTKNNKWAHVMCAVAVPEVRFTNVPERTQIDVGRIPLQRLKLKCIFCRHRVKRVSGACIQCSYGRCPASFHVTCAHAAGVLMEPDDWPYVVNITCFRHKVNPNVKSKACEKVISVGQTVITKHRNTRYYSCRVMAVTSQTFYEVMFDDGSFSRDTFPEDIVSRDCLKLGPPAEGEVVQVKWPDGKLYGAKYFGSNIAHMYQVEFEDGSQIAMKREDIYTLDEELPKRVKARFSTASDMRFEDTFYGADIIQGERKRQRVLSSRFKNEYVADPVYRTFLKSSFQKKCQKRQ
The series is described as above. It is filed as cell-based. The settings on record: HeLa cells overexpressing WT KDM4C, H3K9me3 mark, 24 h; read-out: KDM4C, in cells, EC50 by IF assay (head: IC50). Here is the method:
as §1, §2, §3

Sequence of KDM5A (P29375 whole entry): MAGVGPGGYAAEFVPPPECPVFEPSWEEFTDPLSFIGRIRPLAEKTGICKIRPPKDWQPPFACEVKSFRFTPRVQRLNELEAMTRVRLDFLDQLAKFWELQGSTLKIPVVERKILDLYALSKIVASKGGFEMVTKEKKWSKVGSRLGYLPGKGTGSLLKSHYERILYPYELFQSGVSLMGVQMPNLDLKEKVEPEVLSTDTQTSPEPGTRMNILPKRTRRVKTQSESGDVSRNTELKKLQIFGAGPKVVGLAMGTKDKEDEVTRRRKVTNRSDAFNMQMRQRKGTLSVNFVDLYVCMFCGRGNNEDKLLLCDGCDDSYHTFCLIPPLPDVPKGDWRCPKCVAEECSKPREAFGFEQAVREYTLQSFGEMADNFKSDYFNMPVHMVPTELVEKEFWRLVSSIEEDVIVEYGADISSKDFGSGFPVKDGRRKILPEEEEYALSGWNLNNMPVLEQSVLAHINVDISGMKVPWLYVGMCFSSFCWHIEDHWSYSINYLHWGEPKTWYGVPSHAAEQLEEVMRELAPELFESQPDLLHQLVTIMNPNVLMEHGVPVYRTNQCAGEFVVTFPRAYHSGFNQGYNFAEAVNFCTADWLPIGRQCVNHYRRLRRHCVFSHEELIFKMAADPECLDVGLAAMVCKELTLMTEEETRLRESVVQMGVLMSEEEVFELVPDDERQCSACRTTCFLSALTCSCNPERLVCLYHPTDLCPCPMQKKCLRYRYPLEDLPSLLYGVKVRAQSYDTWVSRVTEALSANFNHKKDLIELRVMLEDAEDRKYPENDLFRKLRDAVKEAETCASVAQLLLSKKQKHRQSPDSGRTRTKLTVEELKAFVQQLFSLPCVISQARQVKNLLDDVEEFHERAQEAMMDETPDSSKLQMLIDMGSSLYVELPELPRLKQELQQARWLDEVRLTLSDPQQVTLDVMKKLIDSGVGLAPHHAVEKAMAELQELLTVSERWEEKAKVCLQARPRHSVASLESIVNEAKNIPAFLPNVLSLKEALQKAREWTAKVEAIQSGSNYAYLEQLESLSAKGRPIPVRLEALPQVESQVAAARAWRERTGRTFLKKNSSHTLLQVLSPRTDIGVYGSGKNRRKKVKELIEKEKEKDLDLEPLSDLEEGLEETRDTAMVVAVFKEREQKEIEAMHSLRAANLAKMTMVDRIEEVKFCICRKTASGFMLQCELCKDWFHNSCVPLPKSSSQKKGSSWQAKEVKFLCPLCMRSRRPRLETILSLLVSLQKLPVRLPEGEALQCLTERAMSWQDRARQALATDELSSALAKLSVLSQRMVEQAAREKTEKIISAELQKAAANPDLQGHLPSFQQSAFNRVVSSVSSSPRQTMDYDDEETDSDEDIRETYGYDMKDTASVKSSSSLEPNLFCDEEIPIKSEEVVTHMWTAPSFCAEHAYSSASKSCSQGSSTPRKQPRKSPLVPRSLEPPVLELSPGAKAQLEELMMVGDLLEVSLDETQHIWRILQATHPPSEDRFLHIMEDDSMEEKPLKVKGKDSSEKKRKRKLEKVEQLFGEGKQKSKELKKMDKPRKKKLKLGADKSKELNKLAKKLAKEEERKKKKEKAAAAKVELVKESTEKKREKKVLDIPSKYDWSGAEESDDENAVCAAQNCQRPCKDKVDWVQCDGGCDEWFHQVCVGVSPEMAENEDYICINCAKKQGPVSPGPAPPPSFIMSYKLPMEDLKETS

Regarding CPI-455, the “Caco-2 (A to B flux)” value in series [1] worked out at 5.21e-06 cm/s.
Broadly, the IC50 is the concentration at which inhibition is half-maximal. A lower IC50 goes with higher potency. Usually EC50 stands for the concentration at which the effect is half-maximal. In turn, `CCOC(=O)c1ccnc(CNCC(=O)N(CC)CCN(C)C)c1` [KDOAM-21] showed an IC50 against KDM5A of 0.068 ± 0.01 µM. The EC50 at KDM4B came to 10 µM; at KDM4C, 17.9 µM. Moreover, the “Caco-2 (A to B flux)” value in series [1] was determined as 5.32e-06 cm/s.
As for `CCN(CCN(C)C)C(=O)CNCc1cncc(C(N)=O)c1` [KDOAM-32], the EC50 on KDM4B and on KDM4C was more than 100 µM in each case.
As for `CCN(CCN(C)C)C(=O)CNCc1cc(C(=O)O)ccn1` [KDOAM-20], at KDM5A, it took 0.01 ± 0.003 µM to reach half-maximal inhibition (IC50).
